Results from patent US5110976A, “Insecticidal composition comprising more than one active ingredient” (priority 1985, dated 1992).

How the values were obtained:
[1] = test system: Leptinotarsa decemlineara larvae; assay: Paralysis of larvae on sprayed tomato plants (Table 23); assay type: in vivo, L3 stage larvae; conditions: 6 hours
Method: Tomato plants pre-cultivated in pots are sprayed with a suspension of the active ingredient formed with a mixture of acetone and water. The treated plants are placed into isolators and infected with L3 stage Leptinotarsa decemlineara larvae. The percental ratio of paralyzed larvae which fall down from the plants is determined after 6 hours.

T. confusum [2] = assay: Filter paper contact test with piperonyl butoxide (Table 7); assay type: in vivo, confused flour-beetle (T. confusum), imagos; conditions: Tribolium confusum, 24 h, PBO, where added, 0.5 mg/disc
Method: (§1) The stereoisomers are dissolved in a 1:2 mixture of mineral oil and acetone and filter paper discs (Whatman No. 1., diameter 9 cm) are impregnated with the corresponding dosage of the solution of the active ingredient. The acetone is allowed to evaporate and the insects are examined on filter paper discs placed into Petri-dishes. Three parallels are used for each dose and 15 animals are placed in each Petri-dish. Mortality rate is determined after 24 hours. The corrected mortality % data are calculated by means of the Abbot formula.
T. confusum (confused flour-beetle) imagos are treated according to Example 20 and percental mortality is determined after 24 hours. The dose of piperonyl butoxide (referred to furtheron as "[…]") amounts to 0.5 mg/disc The results are disclosed in Table 7.

Acanthoscelides obtectus [3] = assay: Impregnated filter paper disc contact test, mortality (Table 1); assay type: in vivo, bean weevil (Acanthoscelides obtectus), imago; conditions: Acanthoscelides obtectus, 24 hours, Abbot corrected
Method: as §1

Acanthoscelides obtectus [4] = assay: 5 EC formulations sprayed on glass plates (Table 21); assay type: in vivo, bean weevil (Acanthoscelides obtectus), imagos; conditions: 5 EC formulation, 24 hours
Method: (§2) The 5 EC formulations prepared according to Example 42 are diluted 50x, 100x, 200x, 400x, 800x and 1600x with water and 0.5 ml doses are sprayed onto glass plates. After drying 10 L. decemlineata imagos are placed on each glass plate and the insects are covered with Petri-dishes. The tests are carried out by using 6 doses and 3 parallels for each dose. The killed insects are counted after 48 hours.
Glass plates are sprayed with 5 EC formulations prepared according to Example 42 in an analogous manner to Example 52. After drying 10 bean weevil (Acanthoscelides obtectus) imagos are placed on each plate and the insects are covered with Petri-dishes. The killed insects are counted after 24 hours. The test is carried out with 6 doses by using 3 parallels for each dose.

Colorado potato beetle = assay: Plot field test on Colorado potato beetle (Table 24); assay type: in vivo, adults; conditions: 10 g active ingredients/ha
Method: The treatments are performed on a 25 m^2 plot strongly infected with Colorado potato beetle. 10 plants per plot are specially marked on which the Colorado potato beetles were counted previously. (During assessment of the number of pests only adults of the second Summer generation are taken into consideration, because at the point of time of the test the ratio of larvae of stages L3 and L4 is negligible). Treatment is accomplished on 25 M^2 plots at a dose of 10 g of active ingredients/ha with aqueous suspensions of the formulations according to Example 37 and three parallels are used. The test is evaluated by counting the leave insects on the marked plants. The average values of three parallel tests are disclosed in Table 24.

L. decemlineata = assay: 5 EC formulations sprayed on glass plates (Table 20); assay type: in vivo, imagos; conditions: 5 EC formulation, 48 hours
Method: as §2

Myzus persicae = assay: 5 EC formulations on aphid-infected bean plants (Table 22); assay type: in vivo, green peach aphids (Myzus persicae)
Method: 15 bean plants infected with green peach aphids (Myzus persicae) at 6 days' age are cultivated in each pot. At 12 days' age the strongly and uniformly infected plants are selected and sprayed to run-off with emulsions freshly prepared from the formulation according to Example 42. Treatments are carried out with three doses (active ingredient 2.5, 5 and 10 ppm) and four parallels are used (one pot per parallel). The second, fourth and eighth day after treatment the aphids are swept down from the plants to a white paper with a fine brush and the live insects are counted.

house fly = assay: Topical LD50 on house fly (mg/kg); assay type: in vivo; conditions: Musca domestica, approximate, topically
Text: The said selectivity index of the enantiomer-pair Ia amounts to 50/0.45=111.
In addition to the synergistic effect the composition of the present invention has a number of further advantages too and for this reason it is an outstanding product. It is very important that the compositions of the present invention are less toxical towards mammals than the hitherto known compositions of similar efficiency. […] The said selectivity index of Ia amounts to 50/0.45=111.

tribolium confusum = assay: Impregnated filter paper disc contact test, mortality (Table 1); assay type: in vivo, flour-beetle (tribolium confusum), imago; conditions: Tribolium confusum, 24 hours, Abbot corrected
Method: as §1

T. confusum [5] = assay: Contact test with piperonyl butoxide (Table 17); assay type: in vivo, flour-beetle (T. confusum), imagos; conditions: for mortality at 25 µg/disc / mortality at 50 µg/disc / mortality at 100 µg/disc / mortality at 200 µg/disc / mortality at 400 µg/disc: Tribolium confusum, 24 h, PBO, where added, 0.5 mg/disc; for mortality at 25 µg/disc: 0.025 mg/disc; for mortality at 50 µg/disc: 0.05 mg/disc; for mortality at 100 µg/disc: 0.1 mg/disc; for mortality at 200 µg/disc: 0.2 mg/disc; for mortality at 400 µg/disc: 0.4 mg/disc
Method: The active ingredient is dissolved in a 1:2 mixture of oil and acetone; filter paper discs (Whatman No. 1, diameter 9 cm) are impregnated with the solutions of the corresponding stereoisomers and enantiomer-pairs, respectively. The acetone is allowed to evaporate, whereupon the insects are exposed to filter papers discs placed in Petri-dishes. Three parallels are used on each dose and 15 insects are placed into each Petri-dish. The percental mortality is determined after 24 hours. The corrected percent mortality is calculated by means of the Abbot Formula.
Imagos of flour-beetle (T. confusum) are treated in an analogous manner to Example 41. As synergist piperonyl butoxide is used in a dose of 0.5 mg/disc.

[6] = 0 days after treatment (control 211)
[7] = 1 day after treatment (control 206)
[8] = 3 days after treatment (control 179)
[9] = 9 days after treatment (control 183)
[10] = 2.5 ppm, 2 days after treatment (control 1850)
[11] = 2.5 ppm, 4 days after treatment (control 2780)
[12] = 2.5 ppm, 8 days after treatment (control 4120)
[13] = 5.0 ppm, 2 days after treatment (control 1850)
[14] = 5.0 ppm, 4 days after treatment (control 2780)
[15] = 5.0 ppm, 8 days after treatment (control 4120)
[16] = 10.0 ppm, 2 days after treatment (control 1850)
[17] = 10.0 ppm, 4 days after treatment (control 2780)
[18] = 10.0 ppm, 8 days after treatment (control 4120)

CC1(C)[C@H](C(=O)O[C@H](C#N)c2cccc(Oc3ccccc3)c2)[C@@H]1C=C(Cl)Cl (relative stereo) [Ia]
% ratio of paralyzed larvae ([1]; 8 ppm): 18% | % ratio of paralyzed larvae ([1]; 40 ppm): 46% | % ratio of paralyzed larvae ([1]; 200 ppm): 100% | % ratio of paralyzed larvae ([1]; 1000 ppm): 100% | mortality at 25 µg/disc (T. confusum [2]; 0.025 mg/disc): 0% | mortality at 50 µg/disc (T. confusum [2]; 0.05 mg/disc): 0% | mortality at 100 µg/disc (T. confusum [2]; 0.1 mg/disc): 12% | mortality at 200 µg/disc (T. confusum [2]; 0.2 mg/disc): 53% | mortality at 400 µg/disc (T. confusum [2]; 0.4 mg/disc): 96% | mortality at 20 µg/disc (Acanthoscelides obtectus [3]; 0.02 mg/disc): 10% | mortality at 70 µg/disc (Acanthoscelides obtectus [3]; 0.07 mg/disc): 37% | mortality at 220 µg/disc (Acanthoscelides obtectus [3]; 0.22 mg/disc): 63% | mortality at 670 µg/disc (Acanthoscelides obtectus [3]; 0.67 mg/disc): 100% | mortality at 2000 µg/disc (Acanthoscelides obtectus [3]; 2.0 mg/disc): 100% | mortality at 6000 µg/disc (Acanthoscelides obtectus [3]; 6.0 mg/disc): 100% | Mortality % (Acanthoscelides obtectus [4]; dilution 50x): 70% | Mortality % (Acanthoscelides obtectus [4]; dilution 100x): 50% | Mortality % (Acanthoscelides obtectus [4]; dilution 200x): 33% | Mortality % (Acanthoscelides obtectus [4]; dilution 400x): 27% | Mortality % (Acanthoscelides obtectus [4]; dilution 800x): 13% | Mortality % (Acanthoscelides obtectus [4]; dilution 1600x): 0% | Average number of live insects/10 plants (Colorado potato beetle; [6]): 171 | Average number of live insects/10 plants (Colorado potato beetle; [7]): 11 | Average number of live insects/10 plants (Colorado potato beetle; [8]): 9 | Average number of live insects/10 plants (Colorado potato beetle; [9]): 25 | Mortality % (L. decemlineata; dilution 50x): 97% | Mortality % (L. decemlineata; dilution 100x): 87% | Mortality % (L. decemlineata; dilution 200x): 63% | Mortality % (L. decemlineata; dilution 400x): 53% | Mortality % (L. decemlineata; dilution 800x): 27% | Mortality % (L. decemlineata; dilution 1600x): 0% | Average number of aphids per pot (Myzus persicae; [10]): 44 | Average number of aphids per pot (Myzus persicae; [11]): 83 | Average number of aphids per pot (Myzus persicae; [12]): 245 | Average number of aphids per pot (Myzus persicae; [13]): 22 | Average number of aphids per pot (Myzus persicae; [14]): 29 | Average number of aphids per pot (Myzus persicae; [15]): 90 | Average number of aphids per pot (Myzus persicae; [16]): 8 | Average number of aphids per pot (Myzus persicae; [17]): 17 | Average number of aphids per pot (Myzus persicae; [18]): 30 | LD50 (house fly): ~0.45 mg/kg | mortality at 20 µg/disc (tribolium confusum; 0.02 mg/disc): 0% | mortality at 70 µg/disc (tribolium confusum; 0.07 mg/disc): 18% | mortality at 220 µg/disc (tribolium confusum; 0.22 mg/disc): 51% | mortality at 670 µg/disc (tribolium confusum; 0.67 mg/disc): 100% | mortality at 2000 µg/disc (tribolium confusum; 2.0 mg/disc): 100% | mortality at 6000 µg/disc (tribolium confusum; 6.0 mg/disc): 100% | mortality at 25 µg/disc (T. confusum [5]): 0% | mortality at 50 µg/disc (T. confusum [5]): 0% | mortality at 100 µg/disc (T. confusum [5]): 12% | mortality at 200 µg/disc (T. confusum [5]): 53% | mortality at 400 µg/disc (T. confusum [5]): 96%

CC1(C)C(C=C(Cl)Cl)C1C(=O)OC(C#N)c1cccc(Oc2ccccc2)c1 (stereo not drawn) [Ia:Ib = 4:6]
% ratio of paralyzed larvae ([1]; 8 ppm): 60% | % ratio of paralyzed larvae ([1]; 40 ppm): 75% | % ratio of paralyzed larvae ([1]; 200 ppm): 100% | % ratio of paralyzed larvae ([1]; 1000 ppm): 100% | Mortality % (Acanthoscelides obtectus [4]; dilution 50x, 1440 min): 70% | Mortality % (Acanthoscelides obtectus [4]; dilution 100x, 1440 min): 53% | Mortality % (Acanthoscelides obtectus [4]; dilution 200x, 1440 min): 37% | Mortality % (Acanthoscelides obtectus [4]; dilution 400x, 1440 min): 30% | Mortality % (Acanthoscelides obtectus [4]; dilution 800x, 1440 min): 17% | Mortality % (Acanthoscelides obtectus [4]; dilution 1600x, 1440 min): 10% | Average number of live insects/10 plants (Colorado potato beetle; [6]): 213 | Average number of live insects/10 plants (Colorado potato beetle; [7]): 8 | Average number of live insects/10 plants (Colorado potato beetle; [8]): 4 | Average number of live insects/10 plants (Colorado potato beetle; [9]): 22 | Mortality % (L. decemlineata; dilution 50x, 2880 min): 93% | Mortality % (L. decemlineata; dilution 100x, 2880 min): 80% | Mortality % (L. decemlineata; dilution 200x, 2880 min): 73% | Mortality % (L. decemlineata; dilution 400x, 2880 min): 53% | Mortality % (L. decemlineata; dilution 800x, 2880 min): 33% | Mortality % (L. decemlineata; dilution 1600x): 0% | Average number of aphids per pot (Myzus persicae; [10]): 38 | Average number of aphids per pot (Myzus persicae; [11]): 71 | Average number of aphids per pot (Myzus persicae; [12]): 251 | Average number of aphids per pot (Myzus persicae; [13]): 21 | Average number of aphids per pot (Myzus persicae; [14]): 32 | Average number of aphids per pot (Myzus persicae; [15]): 82 | Average number of aphids per pot (Myzus persicae; [16]): 10 | Average number of aphids per pot (Myzus persicae; [17]): 11 | Average number of aphids per pot (Myzus persicae; [18]): 21 | synergizability with piperonyl butoxide (T. confusum [5]; Ia:Ib=4:6 mixture versus Ia): can be synergized to a larger extent than enantiomer Ia | mortality at 25 µg/disc (T. confusum [5]): 0% | mortality at 50 µg/disc (T. confusum [5]): 18% | mortality at 100 µg/disc (T. confusum [5]): 57% | mortality at 200 µg/disc (T. confusum [5]): 90% | mortality at 400 µg/disc (T. confusum [5]): 100%
